As a reminder, the IC50 is the concentration needed to halve the response being measured. The term half-life denotes the time in which the quantity being followed falls by half.

In series [1] the test system is Plasmodium falciparum. Description: Antimalarial activity against schizont stage of chloroquine-susceptible Plasmodium falciparum 3D7 infected in erythrocytes assessed as inhibition of [3H]hypoxanthine incorporation after 48 hrs by scintillation counting analysis. It counts as functional, organism-based.
Series [2] has as its system Plasmodium falciparum. Description: Antimalarial activity against schizont stage of chloroquine-susceptible Plasmodium falciparum 3D7 infected in erythrocytes assessed as inhibition of [3H]hypoxanthine incorporation after 96 hrs by scintillation counting analysis. The series is classed as functional, organism-based.
For series [3], the system named is Plasmodium falciparum. Briefly: Antimalarial activity against schizont stage of chloroquine-resistant Plasmodium falciparum W2 infected in erythrocytes assessed as inhibition of [3H]hypoxanthine incorporation after 48 hrs by scintillation counting analysis. It counts as functional, organism-based.
In series [4] the test system is Plasmodium falciparum. Description: Antimalarial activity against schizont stage of chloroquine-resistant Plasmodium falciparum W2 infected in erythrocytes assessed as inhibition of [3H]hypoxanthine incorporation after 96 hrs by scintillation counting analysis. It counts as functional, organism-based.
Series [5] has as its system Plasmodium falciparum. Briefly: Antimalarial activity against schizont stage of atovaquone-resistant Plasmodium falciparum Tm90C2b infected in erythrocytes assessed as inhibition of [3H]hypoxanthine incorporation after 48 hrs by scintillation counting analysis. The series is classed as functional, organism-based.
In series [6] the test system is Plasmodium falciparum. Description: Antimalarial activity against schizont stage of atovaquone-resistant Plasmodium falciparum Tm90C2b infected in erythrocytes assessed as inhibition of [3H]hypoxanthine incorporation after 96 hrs by scintillation counting analysis. The series is classed as functional, organism-based.
Series [7] is described as follows: Chemical stability of the compound in aqueous phosphate buffer of pH 7.4 assessed as half life at 100 uM by HPLC analysis. The series is classed as physicochemical.
Series [8] is described as follows: Stability of the compound in RPMI medium assessed as half life at 100 uM by HPLC analysis in presence of 10% human serum. The series is classed as physicochemical. Conditions: RPMI medium with 10% human serum.
Series [9] relates to Toxoplasma gondii. Description: Antitoxoplasma activity against Toxoplasma gondii RH tachyzoites isolated from human brain assessed as parasite growth inhibition after 24 hrs by hematoxylin-eosin staining based light microscopy. It counts as functional, organism-based.
The test system of series [10] is Toxoplasma gondii. Description: Antitoxoplasma activity against Toxoplasma gondii RH tachyzoites isolated from human brain assessed as parasite growth inhibition after 48 hrs by hematoxylin-eosin staining based light microscopy. The series is classed as functional, organism-based.
The nature of series [11]: Cytotoxicity against rhesus monkey LLC-MK2 cells assessed as cell viability after 48 hrs by MTS assay. It counts as cell-based, Macaca mulatta. To be noted: read-out: LD50.
Series [12] can be described thus: Cytotoxicity against concanavalin A stimulated BALB/c mouse splenocytes after 72 hrs by alamar blue dye based plate reader analysis. The series is classed as cell-based, Splenocyte. To be noted: read-out: LD50. In general terms: Resazurin is reduced to fluorescent resorufin, in cell work by metabolically active cells.
Series [13] has as its system Plasmodium falciparum. Description: Ratio of ciprofloxacin IC50 to compound IC50 for chloroquine-resistant Plasmodium falciparum W2 infected in erythrocytes after 48 hrs. The series is classed as functional.
The test system of series [14] is Plasmodium falciparum. Description: Ratio of ciprofloxacin IC50 to compound IC50 for atovaquone-resistant Plasmodium falciparum Tm90C2b infected in erythrocytes after 48 hrs. It counts as functional.
The subject of series [15] is Plasmodium falciparum. Description: Ratio of ciprofloxacin IC50 to compound IC50 for chloroquine-susceptible Plasmodium falciparum 3D7 infected in erythrocytes after 48 hrs. The series is classed as functional.
The subject of series [16] is Plasmodium falciparum. Briefly: Ratio of ciprofloxacin IC50 to compound IC50 for chloroquine-resistant Plasmodium falciparum W2 infected in erythrocytes after 96 hrs. It counts as functional.
The subject of series [17] is Plasmodium falciparum. Briefly: Ratio of ciprofloxacin IC50 to compound IC50 for atovaquone-resistant Plasmodium falciparum Tm90C2b infected in erythrocytes after 96 hrs. The series is classed as functional.
Series [18] concerns Plasmodium falciparum. Briefly: Ratio of ciprofloxacin IC50 to compound IC50 for chloroquine-susceptible Plasmodium falciparum 3D7 infected in erythrocytes after 96 hrs. It counts as functional.
Series [19] is described as follows: Therapeutic index, ratio of LD50 for rhesus monkey LLC-MK2 cells to IC50 for Toxoplasma gondii RH tachyzoites. It counts as cell-based. To be noted: read-out: Ratio LD50/IC50.
Series [20] is described as follows: Therapeutic index, ratio of LD50 for concanavalin A stimulated BALB/c mouse splenocytes to IC50 for chloroquine-susceptible Plasmodium falciparum 3D7 infected in erythrocytes. To be noted: read-out: Ratio LD50/IC50. The series is classed as cell-based.

On to `CCOC(=O)c1cn(C2CC2)c2cc(N3CCN(Cc4ccccc4)CC3)c(F)cc2c1=O`, for which the IC50 in series [1] worked out at 1080 nM; in series [2], 320 nM; in [3], 1610 nM; in [4] it was 490 nM; in series [5] (read-out: IC50), 2560 nM; in series [6], 2350 nM. Besides, the IC50 in [9] was 1700 nM; in series [10], 1240 nM. For the same compound, the half-life at 100 µM in series [7] and in series [8] was over 3.17 days in each case. The CC50 at 48 h in series [11] is over 30 µM. In [12], the CC50 at 72 h stood at 57 µM.

Regarding `CCOC(=O)c1cn(C2CC2)c2cc(N3CCN(CCC45CC6CC(CC(C6)C4)C5)CC3)c(F)cc2c1=O`, the IC50 in [1] amounted to 1000 nM; in series [2] it was 410 nM; in series [3] it was 2060 nM; in series [4] it was 710 nM; in series [5] (read-out: IC50), 2460 nM; in series [6] it was 2230 nM. In addition, the IC50 in series [9] worked out at 920 nM; in series [10] it was 460 nM. Further, the Ratio IC50 was determined as 60 in [13]; 29 in series [14]; 47 in series [15]; 7 in series [16]; 7 in series [17]; 31 in series [18]. Moreover, the half-life at 100 µM in [7] and in series [8] was over 3.17 days throughout. Moreover, the CC50 at 48 h in [11] amounted to 27.8 µM. Besides, the CC50 at 72 h in series [12] is over 100 µM. In addition, the selectivity ratio in series [19] is over 60; in [20], over 100.

Consider `O=C1C(O)=C([C@H]2CC[C@H](c3ccc(Cl)cc3)CC2)C(=O)c2ccccc21` [ATOVAQUONE], for which the IC50 was 2.3 nM in series [1]; 1.9 nM in series [2]; 3.9 nM in series [3]; 2 nM in series [4]; over 10000 nM in series [5] (read-out: IC50); 388 nM in series [6].

On to `CCOC(=O)c1cn(C2CC2)c2cc(N3CCNCC3)c(F)cc2c1=O` [CIPROFLOXACIN ETHYL ESTER], for which the IC50 in series [1] is 2330 nM; in series [2], 890 nM; in series [3], 3670 nM; in [4] it was 840 nM; in series [5] (read-out: IC50), 3560 nM; in [6], 2270 nM. In addition, the IC50 in [9] stood at 960 nM; in series [10], 420 nM. Besides, the half-life at 100 µM in series [7] and in [8] was over 3.17 days each time. In addition, the CC50 at 48 h in [11] was over 30 µM. Besides, the CC50 at 72 h in [12] was over 40 µM.

Regarding `O=C(O)c1cn(C2CC2)c2cc(N3CCNCC3)c(F)cc2c1=O` [CIPROFLOXACIN], the IC50 in series [1] turned out to be 47000 nM; in [2], 12800 nM; in series [3], 122000 nM; in series [4] it was 16800 nM; in series [5], 71800 nM; in series [6] it was 15300 nM.

As to `CCc1nc(N)nc(N)c1-c1ccc(Cl)cc1` [PYRIMETHAMINE], the IC50 in series [1] came to 13.3 nM; in series [2] it was 2.1 nM; in series [3], 10.4 nM; in [4], 2.3 nM; in series [5] (read-out: IC50), 14.6 nM; in series [6], 1.4 nM. The values for the IC50 in [9] and in series [10] were 240 nM and 120 nM, respectively.

With `C=C[C@H]1CN2CC[C@H]1C[C@H]2[C@H](O)c1ccnc2ccc(OC)cc12` [QUININE], the IC50 is 112 nM in series [2], 917 nM in [3] and 1070 nM in series [5] (read-out: IC50).

The values above are taken from ChEMBL document CHEMBL3217739 (Medchemcomm, 2011).
